# Measurements reported in patent publication US20230233569A1 (Revolution Medicines, Inc., priority 2020, published 2023).
# Assays:
# [1] = tested on: AsPC-1 (K-Ras G12D); experiment: Potency assay: pERK; assay type: cell-based; conditions: Homo sapiens, ASPC1, read-out: pERK EC50
# [2] = target: KRAS G13D (Homo sapiens, UniProt P01116+P62937, G13D); experiment: Ras-Raf disruption / FRET / MOA assay (BRAF RBD); assay type: biochemical; conditions: KRAS G13D FRET data IC50, Ras-Raf disruption, with Cyclophilin A
# In short: (§1)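 Compound-induced Ras–Cyclophilin A ternary complex disrupting BRAF RBD binding, read as IC50 from reduced TR-FRET ratio relative to DMSO. Final: Ras-GMPPNP 12.5 nM, BRAF RBD 50 nM, Cyclophilin A 25 μM, top compound 30 μM (3-fold, 10 points); 3 h at 25 °C, then 1.5 h with detection antibodies.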
# [3] = target: KRAS G12V (Homo sapiens, UniProt P01116+P62937, G12V); experiment: Ras-Raf disruption / FRET / MOA assay (BRAF RBD); assay type: biochemical; conditions: KRAS G12V FRET data IC50, Ras-Raf disruption, with Cyclophilin A
# In short: as §1
# [4] = target: NRAS Q61R (Homo sapiens, UniProt P01111+P62937, Q61R); experiment: Ras-Raf disruption / FRET / MOA assay (BRAF RBD); assay type: biochemical
# In short: as §1
# [5] = target: NRAS WT (Homo sapiens, UniProt P01111+P62937); experiment: Ras-Raf disruption / FRET / MOA assay (BRAF RBD); assay type: biochemical
# In short: as §1
# [6] = target: NRAS G12C (Homo sapiens, UniProt P01111+P62937, G12C); experiment: Ras-Raf disruption / FRET / MOA assay (BRAF RBD); assay type: biochemical; conditions: NRAS G12C FRET data IC50, NRAS G12C
# In short: as §1
# [7] = target: KRAS G12D (Homo sapiens, UniProt P01116+P62937, G12D); experiment: Ras-Raf disruption / FRET / MOA assay (BRAF RBD); assay type: biochemical; conditions: KRAS G12D FRET data IC50, Ras-Raf disruption, with Cyclophilin A
# In short: as §1
# [8] = target: KRAS G13C (Homo sapiens, UniProt P01116+P62937, G13C); experiment: Ras-Raf disruption / FRET / MOA assay (BRAF RBD); assay type: biochemical; conditions: KRAS G13C FRET data IC50, Ras-Raf disruption, with Cyclophilin A
# In short: as §1
# [9] = target: KRAS WT (Homo sapiens, UniProt P01116+P62937); experiment: Ras-Raf disruption / FRET / MOA assay (BRAF RBD); assay type: biochemical; conditions: KRAS WT FRET data IC50, Ras-Raf disruption, with Cyclophilin A
# In short: as §1
# [10] = target: NRAS Q61K (Homo sapiens, UniProt P01111+P62937, Q61K); experiment: Ras-Raf disruption / FRET / MOA assay (BRAF RBD); assay type: biochemical
# In short: as §1
# [11] = target: KRAS Q61H (Homo sapiens, UniProt P01116+P62937, Q61H); experiment: Ras-Raf disruption / FRET / MOA assay (BRAF RBD); assay type: biochemical
# In short: as §1
# [12] = target: KRAS G12S (Homo sapiens, UniProt P01116+P62937, G12S); experiment: Ras-Raf disruption / FRET / MOA assay (BRAF RBD); assay type: biochemical; conditions: KRAS G12S FRET data IC50, Ras-Raf disruption, with Cyclophilin A
# In short: as §1
# [13] = target: KRAS G12C (Homo sapiens, UniProt P01116+P62937, G12C); experiment: Ras-Raf disruption / FRET / MOA assay (BRAF RBD); assay type: biochemical; conditions: KRAS G12C FRET data IC50, Ras-Raf disruption, with Cyclophilin A
# In short: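 TR-FRET read-out after 1.5 h with anti-His Eu-W1024 (10 nM) and anti-GST APC (50 nM), following 3 h at 25 °C of compound (top 30 μM, 3-fold, 10 points) with 25 μM Cyclophilin A, 12.5 nM GMPPNP-loaded K-Ras G12C and 50 nM BRAF RBD; IC50 reported.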
# [14] = tested on: AsPC-1 (K-Ras G12D); experiment: CellTiter-Glo cell viability assay; assay type: cell-based; conditions: Homo sapiens, ASPC1, 120 h, read-out: AsPC-1 Cell Viability assay data IC50, K-Ras G12D, 5-day treatment
# In short: (§2)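 Cells already in plates received compound by direct dispensing. After incubation to day 5, plates sat at room temperature roughly 30 minutes, then ATP-based luminescence was measured and values derived from a four-parameter fit of DMSO-normalized data.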
# [15] = tested on: NCI-H358 (K-Ras G12C); experiment: CellTiter-Glo cell viability assay; assay type: cell-based; conditions: Homo sapiens, NCI-H358, 120 h, read-out: H358 Cell Viability assay data IC50, K-Ras G12C, 5-day treatment
# In short: as §2
# Sequence of KRAS G12S (P01116 1-169 isoform P01116-2 G12S limits assumed): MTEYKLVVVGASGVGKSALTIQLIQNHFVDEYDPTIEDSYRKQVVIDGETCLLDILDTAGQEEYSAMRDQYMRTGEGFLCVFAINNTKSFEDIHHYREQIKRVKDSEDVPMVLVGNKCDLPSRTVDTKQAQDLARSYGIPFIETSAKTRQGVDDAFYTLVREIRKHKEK
# Sequence of KRAS G12S (P62937 whole entry): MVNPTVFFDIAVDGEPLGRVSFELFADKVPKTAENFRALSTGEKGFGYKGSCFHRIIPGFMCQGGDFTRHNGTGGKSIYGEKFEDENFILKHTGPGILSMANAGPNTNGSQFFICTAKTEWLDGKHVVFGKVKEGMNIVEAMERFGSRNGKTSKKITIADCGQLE
# Sequence of KRAS G12V (P01116 1-169 isoform P01116-2 G12V limits assumed): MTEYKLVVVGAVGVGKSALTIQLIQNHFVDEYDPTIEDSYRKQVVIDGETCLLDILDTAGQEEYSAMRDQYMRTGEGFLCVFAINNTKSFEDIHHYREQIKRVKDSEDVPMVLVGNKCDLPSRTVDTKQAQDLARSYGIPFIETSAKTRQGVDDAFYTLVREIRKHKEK
# Sequence of KRAS G12V (P62937 whole entry): as the sequence (P62937 whole entry) above
# Sequence of KRAS G12D (P01116 1-169 isoform P01116-2 G12D limits assumed): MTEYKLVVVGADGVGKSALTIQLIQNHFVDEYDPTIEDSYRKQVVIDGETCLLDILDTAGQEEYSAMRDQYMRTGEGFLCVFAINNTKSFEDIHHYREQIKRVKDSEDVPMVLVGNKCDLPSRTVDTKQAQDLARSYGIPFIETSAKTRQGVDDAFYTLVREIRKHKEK
# Sequence of KRAS G12D (P62937 whole entry): as the sequence (P62937 whole entry) above
# Sequence of NRAS G12C (P01111 whole entry G12C): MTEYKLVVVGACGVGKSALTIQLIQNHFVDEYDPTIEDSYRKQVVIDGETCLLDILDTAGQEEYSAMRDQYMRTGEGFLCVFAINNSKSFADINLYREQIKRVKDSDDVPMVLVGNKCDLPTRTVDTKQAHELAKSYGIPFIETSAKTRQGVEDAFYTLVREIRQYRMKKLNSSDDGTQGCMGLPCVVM
# Sequence of NRAS G12C (P62937 whole entry): as the sequence (P62937 whole entry) above
# Sequence of NRAS Q61K (P01111 whole entry Q61K): as the sequence (P01111 whole entry G12C) above, with C12G, Q61K counted along it
# Sequence of NRAS Q61K (P62937 whole entry): as the sequence (P62937 whole entry) above
# Sequence of KRAS G13C (P01116 1-169 isoform P01116-2 G13C limits assumed): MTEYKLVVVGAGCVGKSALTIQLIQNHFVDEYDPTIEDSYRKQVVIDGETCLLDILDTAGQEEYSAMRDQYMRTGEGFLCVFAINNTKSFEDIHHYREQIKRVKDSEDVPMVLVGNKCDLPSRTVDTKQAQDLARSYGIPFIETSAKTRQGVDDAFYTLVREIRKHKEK
# Sequence of KRAS G13C (P62937 whole entry): as the sequence (P62937 whole entry) above
# Sequence of KRAS G13D (P01116 1-169 isoform P01116-2 G13D limits assumed): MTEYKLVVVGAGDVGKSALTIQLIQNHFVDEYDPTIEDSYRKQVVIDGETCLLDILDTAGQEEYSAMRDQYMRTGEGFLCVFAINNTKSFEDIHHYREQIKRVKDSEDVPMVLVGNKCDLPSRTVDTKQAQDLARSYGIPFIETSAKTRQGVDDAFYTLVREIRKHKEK
# Sequence of KRAS G13D (P62937 whole entry): as the sequence (P62937 whole entry) above
# Sequence of NRAS Q61R (P01111 whole entry Q61R): as the sequence (P01111 whole entry G12C) above, with C12G, Q61R counted along it
# Sequence of NRAS Q61R (P62937 whole entry): as the sequence (P62937 whole entry) above
# Sequence of NRAS WT (P01111 whole entry): as the sequence (P01111 whole entry G12C) above, with C12G counted along it
# Sequence of NRAS WT (P62937 whole entry): as the sequence (P62937 whole entry) above
# Sequence of KRAS WT (P01116 1-169 isoform P01116-2 limits assumed): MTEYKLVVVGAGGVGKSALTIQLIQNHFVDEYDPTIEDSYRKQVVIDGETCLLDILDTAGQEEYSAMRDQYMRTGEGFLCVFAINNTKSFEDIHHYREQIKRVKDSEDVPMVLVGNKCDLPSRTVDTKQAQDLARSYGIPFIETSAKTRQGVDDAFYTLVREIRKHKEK
# Sequence of KRAS WT (P62937 whole entry): as the sequence (P62937 whole entry) above
# Sequence of KRAS G12C (P01116 1-169 isoform P01116-2 G12C limits assumed): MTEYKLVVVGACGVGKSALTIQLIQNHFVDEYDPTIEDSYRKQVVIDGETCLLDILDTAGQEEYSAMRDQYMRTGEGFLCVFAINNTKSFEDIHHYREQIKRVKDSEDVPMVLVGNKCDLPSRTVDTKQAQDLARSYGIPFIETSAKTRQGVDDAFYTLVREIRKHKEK
# Sequence of KRAS G12C (P62937 whole entry): as the sequence (P62937 whole entry) above
# Sequence of KRAS Q61H (P01116 1-169 isoform P01116-2 Q61H limits assumed): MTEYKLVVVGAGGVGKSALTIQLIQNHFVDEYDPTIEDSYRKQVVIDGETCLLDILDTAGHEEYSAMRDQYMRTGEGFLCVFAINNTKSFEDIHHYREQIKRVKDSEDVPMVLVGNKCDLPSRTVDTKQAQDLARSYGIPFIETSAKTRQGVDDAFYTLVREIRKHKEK
# Sequence of KRAS Q61H (P62937 whole entry): as the sequence (P62937 whole entry) above
Structure (SMILES),EC50 [1],IC50 [2],IC50 [3],IC50 [4],IC50 [5],IC50 [6],IC50 [7],IC50 [8],IC50 [9],IC50 [10],IC50 [11],IC50 [12],IC50 [13],IC50 [14],IC50 [15]
CCn1c(-c2cccnc2[C@H](C)OC)c2c3cc(ccc31)-c1cc(O)cc(c1)C[C@H](NC(=O)[C@H](C(C)C)N(C)C(=O)CN(C)C(=O)[C@H]1N[C@H]1C(C)C)C(=O)N1CCC[C@H](N1)C(=O)OCC(C)(C)C2 [Example 265],< 5 µM,10 to 100 nM,10 to 100 nM,100 to 1000 nM,10 to 100 nM,10 to 100 nM,10 to 100 nM,10 to 100 nM,10 to 100 nM,100 to 1000 nM,10 to 100 nM,10 to 100 nM,10 to 100 nM,100 to 1000 nM,10 to 100 nM
CCn1c(-c2cccnc2[C@H](C)OC)c2c3cc(ccc31)-c1cc(O)cc(c1)C[C@H](NC(=O)[C@H](C(C)C)N(C)C(=O)CN(C)C(=O)[C@H]1N[C@@H]1C(F)(F)F)C(=O)N1CCC[C@H](N1)C(=O)OCC(C)(C)C2 [Example 261],< 5 µM,10 to 100 nM,10 to 100 nM,100 to 1000 nM,10 to 100 nM,10 to 100 nM,10 to 100 nM,10 to 100 nM,10 to 100 nM,100 to 1000 nM,10 to 100 nM,10 to 100 nM,10 to 100 nM,100 to 1000 nM,< 10 nM
CCn1c(-c2cccnc2[C@H](C)OC)c2c3cc(ccc31)-c1cc(O)cc(c1)C[C@H](NC(=O)[C@H](C(C)C)N(C)C(=O)CN(C)C(=O)[C@H]1CN1CC1COC1)C(=O)N1CCC[C@H](N1)C(=O)OCC(C)(C)C2 (stereo partly drawn) [Example 277],< 5 µM,100 to 1000 nM,100 to 1000 nM,1000 to 10000 nM,100 to 1000 nM,10 to 100 nM,100 to 1000 nM,10 to 100 nM,100 to 1000 nM,100 to 1000 nM,10 to 100 nM,10 to 100 nM,10 to 100 nM,100 to 1000 nM,10 to 100 nM
CCn1c(-c2cccnc2[C@H](C)OC)c2c3cc(ccc31)-c1cc(O)cc(c1)C[C@H](NC(=O)[C@H](C(C)C)N(C)C(=O)CN(C)C(=O)[C@@H]1N[C@@H]1C(C)C)C(=O)N1CCC[C@H](N1)C(=O)OCC(C)(C)C2 [Example 264],< 5 µM,10 to 100 nM,10 to 100 nM,10 to 100 nM,< 10 nM,< 10 nM,10 to 100 nM,10 to 100 nM,< 10 nM,10 to 100 nM,< 10 nM,< 10 nM,< 10 nM,100 to 1000 nM,10 to 100 nM
CCn1c(-c2cccnc2[C@H](C)OC)c2c3cc(ccc31)-c1cc(O)cc(c1)C[C@H](NC(=O)[C@H](C(C)C)N(C)C(=O)CN(C)C(=O)[C@H]1N[C@H]1C1CCC1)C(=O)N1CCC[C@H](N1)C(=O)OCC(C)(C)C2 [Example 288],< 5 µM,10 to 100 nM,10 to 100 nM,100 to 1000 nM,10 to 100 nM,10 to 100 nM,100 to 1000 nM,10 to 100 nM,10 to 100 nM,100 to 1000 nM,10 to 100 nM,10 to 100 nM,10 to 100 nM,100 to 1000 nM,10 to 100 nM
